Reference: the kinase profiling compilation of Christmann-Franck et al. (2016)

Tests used:
Test in all cases: radiometric filter-binding kinase assay
EPHB4 (human) = EPHB4 (human) (UniProt P54760); conditions: compound 100.0 µM
MARK3 (human) = MARK3 (human) (UniProt P27448)
MST4 (human) = MST4 (human) (UniProt Q9P289)
SRC (human) = SRC (human) (UniProt P12931)
CHEK2 (human) = CHEK2 (human) (UniProt O96017)
ERBB4 (human) = ERBB4 (human) (UniProt Q15303)
MARK4 (human) = MARK4 (human) (UniProt Q96L34)
MAPK1 (human) = MAPK1 (human) (UniProt P28482)
CLK2 (human) = CLK2 (human) (UniProt P49760)
MAP3K1 (human) = MAP3K1 (human) (UniProt Q13233); conditions: compound 100.0 µM
PAK6 (human) = PAK6 (human) (UniProt Q9NQU5)
HIPK3 (human) = HIPK3 (human) (UniProt Q9H422)
CHEK1 (human) = CHEK1 (human) (UniProt O14757)
HIPK1 (human) = HIPK1 (human) (UniProt Q86Z02); conditions: compound 100.0 µM
DAPK1 (human) = DAPK1 (human) (UniProt P53355)
EEF2K (human) = EEF2K (human) (UniProt O00418)
PRKCA (human) = PRKCA (human) (UniProt P17252)
RPS6KA1 KD1 KD2 (human) = RPS6KA1 KD1 KD2 (human) (UniProt Q15418)
CDK2 CCNA2 (human) = CDK2 CCNA2 (human) (UniProt P20248+P24941)
PLK1 (human) = PLK1 (human) (UniProt P53350)
MAPK3 (human) = MAPK3 (human) (UniProt P27361)
TAOK1 (human) = TAOK1 (human) (UniProt Q7L7X3)
FLT1 (human) = FLT1 (human) (UniProt P17948)
MAP3K5 (human) = MAP3K5 (human) (UniProt Q99683)
GCK (human) = GCK (human) (UniProt Q12851); conditions: compound 100.0 µM
AURKA (human) = AURKA (human) (UniProt O14965)
[1] = test system: SGK1 (human), O00141 [S422D]
NTRK1 (human) = NTRK1 (human) (UniProt P04629)
RPS6KA5 KD1 KD2 (human) = RPS6KA5 KD1 KD2 (human) (UniProt O75582)
NUAK1 (human) = NUAK1 (human) (UniProt O60285)
JAK2 JH1 JH2 (human) = JAK2 JH1 JH2 (human) (UniProt O60674)
PRKCZ (human) = PRKCZ (human) (UniProt Q05513)
BRSK2 (human) = BRSK2 (human) (UniProt Q8IWQ3)
RPS6KA3 KD1 KD2 (human) = RPS6KA3 KD1 KD2 (human) (UniProt P51812); conditions: compound 1000.0 µM

Sequence of MAPK3 (human) (P27361 whole entry, looked up): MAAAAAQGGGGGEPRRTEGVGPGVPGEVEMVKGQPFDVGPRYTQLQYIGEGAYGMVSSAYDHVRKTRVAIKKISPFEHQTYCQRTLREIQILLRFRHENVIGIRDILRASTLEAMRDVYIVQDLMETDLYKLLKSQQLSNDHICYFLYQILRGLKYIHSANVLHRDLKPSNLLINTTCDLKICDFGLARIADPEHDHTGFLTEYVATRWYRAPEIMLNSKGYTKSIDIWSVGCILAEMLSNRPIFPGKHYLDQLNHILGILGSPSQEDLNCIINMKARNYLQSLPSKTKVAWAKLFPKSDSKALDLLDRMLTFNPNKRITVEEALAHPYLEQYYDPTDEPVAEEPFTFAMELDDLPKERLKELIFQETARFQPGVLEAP
Sequence of PLK1 (human) (P53350 whole entry, looked up): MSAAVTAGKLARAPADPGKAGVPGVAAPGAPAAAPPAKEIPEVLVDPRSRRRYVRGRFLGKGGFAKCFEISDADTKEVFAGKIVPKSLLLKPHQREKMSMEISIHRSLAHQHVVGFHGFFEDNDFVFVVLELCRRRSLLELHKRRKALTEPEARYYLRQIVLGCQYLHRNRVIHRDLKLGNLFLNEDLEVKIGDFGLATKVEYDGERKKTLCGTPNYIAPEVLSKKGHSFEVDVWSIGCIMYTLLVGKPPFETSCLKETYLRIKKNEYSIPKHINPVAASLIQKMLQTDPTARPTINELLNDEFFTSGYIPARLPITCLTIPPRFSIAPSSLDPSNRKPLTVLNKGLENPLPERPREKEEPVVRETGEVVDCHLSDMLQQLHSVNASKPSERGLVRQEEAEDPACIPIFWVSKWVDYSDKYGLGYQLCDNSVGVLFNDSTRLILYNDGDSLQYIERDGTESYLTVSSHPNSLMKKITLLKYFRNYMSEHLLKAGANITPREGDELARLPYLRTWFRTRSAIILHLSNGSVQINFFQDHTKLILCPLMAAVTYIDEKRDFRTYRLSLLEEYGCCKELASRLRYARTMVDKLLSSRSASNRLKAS
Sequence of TAOK1 (human) (Q7L7X3 whole entry, looked up): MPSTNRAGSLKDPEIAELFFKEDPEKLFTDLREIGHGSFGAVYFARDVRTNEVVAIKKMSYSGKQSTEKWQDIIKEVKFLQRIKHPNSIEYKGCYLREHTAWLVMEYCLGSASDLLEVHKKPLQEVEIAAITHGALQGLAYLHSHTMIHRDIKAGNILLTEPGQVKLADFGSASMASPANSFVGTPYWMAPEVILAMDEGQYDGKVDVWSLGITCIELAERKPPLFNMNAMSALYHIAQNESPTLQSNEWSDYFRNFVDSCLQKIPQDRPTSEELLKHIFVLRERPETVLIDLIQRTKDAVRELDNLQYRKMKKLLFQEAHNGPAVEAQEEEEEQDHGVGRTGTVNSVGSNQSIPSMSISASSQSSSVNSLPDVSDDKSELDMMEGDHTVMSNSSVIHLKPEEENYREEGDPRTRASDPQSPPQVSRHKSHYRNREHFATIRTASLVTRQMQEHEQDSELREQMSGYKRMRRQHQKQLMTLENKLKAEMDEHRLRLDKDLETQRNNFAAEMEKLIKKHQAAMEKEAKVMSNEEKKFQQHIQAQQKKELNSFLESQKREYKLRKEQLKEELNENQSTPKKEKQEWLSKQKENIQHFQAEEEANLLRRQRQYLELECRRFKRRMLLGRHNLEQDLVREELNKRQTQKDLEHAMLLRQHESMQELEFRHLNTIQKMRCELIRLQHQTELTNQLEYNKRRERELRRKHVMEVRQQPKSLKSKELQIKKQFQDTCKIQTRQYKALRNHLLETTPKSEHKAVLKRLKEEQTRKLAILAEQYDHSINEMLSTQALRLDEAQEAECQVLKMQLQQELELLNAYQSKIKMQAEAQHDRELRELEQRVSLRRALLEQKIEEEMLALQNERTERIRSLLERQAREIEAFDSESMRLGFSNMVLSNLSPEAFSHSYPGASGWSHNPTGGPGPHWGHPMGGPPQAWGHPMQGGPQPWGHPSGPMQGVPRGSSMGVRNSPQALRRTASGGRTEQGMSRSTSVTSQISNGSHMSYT
Sequence of AURKA (human) (O14965 whole entry, looked up): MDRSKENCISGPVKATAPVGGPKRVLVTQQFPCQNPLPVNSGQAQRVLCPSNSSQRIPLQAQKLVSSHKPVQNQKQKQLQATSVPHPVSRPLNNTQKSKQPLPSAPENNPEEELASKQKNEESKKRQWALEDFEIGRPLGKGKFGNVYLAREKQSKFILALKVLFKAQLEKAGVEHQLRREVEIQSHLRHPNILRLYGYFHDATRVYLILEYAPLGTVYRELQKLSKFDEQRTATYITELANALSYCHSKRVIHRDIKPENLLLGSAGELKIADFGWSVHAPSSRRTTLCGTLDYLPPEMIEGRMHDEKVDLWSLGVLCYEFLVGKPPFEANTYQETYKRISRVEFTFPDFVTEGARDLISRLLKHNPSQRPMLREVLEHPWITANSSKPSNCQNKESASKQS
Sequence of CLK2 (human) (P49760 whole entry, looked up): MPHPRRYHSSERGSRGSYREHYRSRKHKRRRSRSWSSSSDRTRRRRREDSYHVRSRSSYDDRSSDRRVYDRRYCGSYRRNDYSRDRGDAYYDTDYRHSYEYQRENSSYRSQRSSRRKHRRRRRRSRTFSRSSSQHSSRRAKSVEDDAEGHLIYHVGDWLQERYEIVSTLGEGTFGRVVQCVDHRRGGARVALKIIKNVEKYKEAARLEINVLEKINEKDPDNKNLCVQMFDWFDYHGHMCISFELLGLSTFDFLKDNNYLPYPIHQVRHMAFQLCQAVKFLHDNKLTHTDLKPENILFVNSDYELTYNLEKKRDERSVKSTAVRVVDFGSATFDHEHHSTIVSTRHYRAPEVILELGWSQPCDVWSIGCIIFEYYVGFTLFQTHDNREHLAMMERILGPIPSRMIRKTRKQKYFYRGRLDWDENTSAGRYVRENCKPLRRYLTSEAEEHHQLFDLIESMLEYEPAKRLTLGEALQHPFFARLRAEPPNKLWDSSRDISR
Sequence of BRSK2 (human) (Q8IWQ3 whole entry, looked up): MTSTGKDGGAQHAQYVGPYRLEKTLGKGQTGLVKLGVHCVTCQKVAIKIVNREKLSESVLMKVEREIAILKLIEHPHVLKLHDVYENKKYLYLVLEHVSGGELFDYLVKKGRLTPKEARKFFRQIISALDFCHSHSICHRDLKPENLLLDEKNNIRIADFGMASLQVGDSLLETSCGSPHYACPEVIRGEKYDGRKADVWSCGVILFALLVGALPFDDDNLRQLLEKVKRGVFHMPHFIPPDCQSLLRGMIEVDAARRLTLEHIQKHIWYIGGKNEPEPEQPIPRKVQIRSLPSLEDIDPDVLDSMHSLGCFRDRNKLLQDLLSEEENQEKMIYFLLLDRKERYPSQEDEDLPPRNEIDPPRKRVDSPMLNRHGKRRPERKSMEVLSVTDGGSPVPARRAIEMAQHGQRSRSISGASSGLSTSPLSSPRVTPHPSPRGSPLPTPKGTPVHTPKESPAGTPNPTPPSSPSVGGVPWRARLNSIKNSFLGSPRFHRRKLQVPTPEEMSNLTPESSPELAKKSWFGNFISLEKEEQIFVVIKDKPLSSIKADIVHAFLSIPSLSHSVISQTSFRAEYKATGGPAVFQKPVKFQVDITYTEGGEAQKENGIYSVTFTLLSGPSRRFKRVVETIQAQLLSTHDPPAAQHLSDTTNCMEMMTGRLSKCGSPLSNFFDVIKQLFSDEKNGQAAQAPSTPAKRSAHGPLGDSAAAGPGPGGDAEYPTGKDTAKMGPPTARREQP
Sequence of HIPK3 (human) (Q9H422 whole entry, looked up): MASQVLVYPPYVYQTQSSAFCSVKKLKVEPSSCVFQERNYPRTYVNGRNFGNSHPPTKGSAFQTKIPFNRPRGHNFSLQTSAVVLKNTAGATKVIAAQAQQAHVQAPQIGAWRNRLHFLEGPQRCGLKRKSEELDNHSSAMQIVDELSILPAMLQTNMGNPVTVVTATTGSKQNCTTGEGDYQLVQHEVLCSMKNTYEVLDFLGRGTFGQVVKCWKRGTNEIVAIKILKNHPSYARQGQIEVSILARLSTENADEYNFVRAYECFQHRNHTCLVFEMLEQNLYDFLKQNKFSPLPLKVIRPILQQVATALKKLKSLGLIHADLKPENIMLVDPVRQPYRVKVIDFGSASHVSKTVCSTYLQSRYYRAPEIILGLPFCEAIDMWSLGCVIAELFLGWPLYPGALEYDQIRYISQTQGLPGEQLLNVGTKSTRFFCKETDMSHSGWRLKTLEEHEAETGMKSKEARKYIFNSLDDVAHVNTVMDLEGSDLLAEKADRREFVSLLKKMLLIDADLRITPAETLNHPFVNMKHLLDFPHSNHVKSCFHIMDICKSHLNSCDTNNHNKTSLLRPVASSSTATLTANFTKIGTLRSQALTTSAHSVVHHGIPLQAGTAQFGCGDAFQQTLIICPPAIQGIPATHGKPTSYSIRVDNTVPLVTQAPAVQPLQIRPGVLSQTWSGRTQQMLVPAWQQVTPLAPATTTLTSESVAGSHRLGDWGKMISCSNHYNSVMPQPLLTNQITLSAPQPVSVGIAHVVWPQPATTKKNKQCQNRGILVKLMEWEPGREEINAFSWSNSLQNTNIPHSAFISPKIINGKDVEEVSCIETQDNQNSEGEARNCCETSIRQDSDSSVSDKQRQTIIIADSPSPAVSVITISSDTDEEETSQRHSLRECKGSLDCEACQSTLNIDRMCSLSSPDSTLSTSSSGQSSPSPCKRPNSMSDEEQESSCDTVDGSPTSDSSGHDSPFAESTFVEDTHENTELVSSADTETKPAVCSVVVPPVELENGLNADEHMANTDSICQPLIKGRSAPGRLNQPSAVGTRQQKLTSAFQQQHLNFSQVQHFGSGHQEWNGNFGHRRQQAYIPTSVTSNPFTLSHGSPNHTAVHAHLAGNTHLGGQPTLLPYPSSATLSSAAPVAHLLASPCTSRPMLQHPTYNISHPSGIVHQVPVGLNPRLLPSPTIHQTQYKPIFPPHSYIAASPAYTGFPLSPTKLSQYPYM

Compound: COC(=O)/C=C/C(=O)OC
- residual activity (EPHB4 (human)): 122%
- residual activity (MARK3 (human); compound 100.0 µM): 108%
- residual activity (MARK3 (human); compound 1000.0 µM): 132%
- residual activity (MST4 (human); compound 10.0 µM): 95%
- residual activity (MST4 (human); compound 100.0 µM): 106%
- residual activity (SRC (human); compound 100.0 µM): 104%
- residual activity (SRC (human); compound 1000.0 µM): 103%
- residual activity (CHEK2 (human); compound 10.0 µM): 90%
- residual activity (CHEK2 (human); compound 100.0 µM): 98%
- residual activity (CHEK2 (human); compound 1000.0 µM): 100%
- residual activity (ERBB4 (human); compound 10.0 µM): 110%
- residual activity (ERBB4 (human); compound 1000.0 µM): 108%
- residual activity (MARK4 (human); compound 100.0 µM): 92%
- residual activity (MARK4 (human); compound 1000.0 µM): 96%
- residual activity (MAPK1 (human); compound 10.0 µM): 85%
- residual activity (MAPK1 (human); compound 1000.0 µM): 105%
- residual activity (CLK2 (human); compound 10.0 µM): 92%
- residual activity (CLK2 (human); compound 100.0 µM): 100%
- residual activity (CLK2 (human); compound 1000.0 µM): 101%
- residual activity (MAP3K1 (human)): 95%
- residual activity (PAK6 (human); compound 10.0 µM): 90%
- residual activity (PAK6 (human); compound 100.0 µM): 98%
- residual activity (PAK6 (human); compound 1000.0 µM): 103%
- residual activity (HIPK3 (human); compound 10.0 µM): 81%
- residual activity (HIPK3 (human); compound 100.0 µM): 94%
- residual activity (HIPK3 (human); compound 1000.0 µM): 86%
- residual activity (CHEK1 (human); compound 100.0 µM): 93%
- residual activity (CHEK1 (human); compound 1000.0 µM): 97%
- residual activity (HIPK1 (human)): 95%
- residual activity (DAPK1 (human); compound 10.0 µM): 99%
- residual activity (DAPK1 (human); compound 100.0 µM): 102%
- residual activity (DAPK1 (human); compound 1000.0 µM): 104%
- residual activity (EEF2K (human); compound 100.0 µM): 106%
- residual activity (EEF2K (human); compound 1000.0 µM): 111%
- residual activity (PRKCA (human); compound 10.0 µM): 99%
- residual activity (PRKCA (human); compound 100.0 µM): 101%
- residual activity (PRKCA (human); compound 1000.0 µM): 105%
- residual activity (RPS6KA1 KD1 KD2 (human); compound 10.0 µM): 91%
- residual activity (RPS6KA1 KD1 KD2 (human); compound 100.0 µM): 92%
- residual activity (RPS6KA1 KD1 KD2 (human); compound 1000.0 µM): 90%
- residual activity (CDK2 CCNA2 (human); compound 10.0 µM): 77%
- residual activity (CDK2 CCNA2 (human); compound 100.0 µM): 75%
- residual activity (CDK2 CCNA2 (human); compound 1000.0 µM): 87%
- residual activity (PLK1 (human); compound 10.0 µM): 94%
- residual activity (PLK1 (human); compound 100.0 µM): 100%
- residual activity (PLK1 (human); compound 1000.0 µM): 91%
- residual activity (MAPK3 (human); compound 10.0 µM): 95%
- residual activity (MAPK3 (human); compound 100.0 µM): 99%
- residual activity (MAPK3 (human); compound 1000.0 µM): 100%
- residual activity (TAOK1 (human); compound 10.0 µM): 91%
- residual activity (TAOK1 (human); compound 100.0 µM): 109%
- residual activity (TAOK1 (human); compound 1000.0 µM): 123%
- residual activity (FLT1 (human); compound 10.0 µM): 108%
- residual activity (FLT1 (human); compound 100.0 µM): 110%
- residual activity (FLT1 (human); compound 1000.0 µM): 98%
- residual activity (MAP3K5 (human); compound 10.0 µM): 93%
- residual activity (MAP3K5 (human); compound 100.0 µM): 88%
- residual activity (MAP3K5 (human); compound 1000.0 µM): 105%
- residual activity (GCK (human)): 107%
- residual activity (AURKA (human); compound 10.0 µM): 117%
- residual activity (AURKA (human); compound 100.0 µM): 120%
- residual activity (AURKA (human); compound 1000.0 µM): 114%
- residual activity ([1]; compound 10.0 µM): 93%
- residual activity ([1]; compound 100.0 µM): 96%
- residual activity ([1]; compound 1000.0 µM): 100%
- residual activity (NTRK1 (human); compound 10.0 µM): 88%
- residual activity (NTRK1 (human); compound 100.0 µM): 96%
- residual activity (NTRK1 (human); compound 1000.0 µM): 83%
- residual activity (RPS6KA5 KD1 KD2 (human); compound 10.0 µM): 107%
- residual activity (RPS6KA5 KD1 KD2 (human); compound 100.0 µM): 105%
- residual activity (NUAK1 (human); compound 10.0 µM): 97%
- residual activity (NUAK1 (human); compound 100.0 µM): 104%
- residual activity (NUAK1 (human); compound 1000.0 µM): 101%
- residual activity (JAK2 JH1 JH2 (human); compound 10.0 µM): 100%
- residual activity (JAK2 JH1 JH2 (human); compound 100.0 µM): 105%
- residual activity (JAK2 JH1 JH2 (human); compound 1000.0 µM): 116%
- residual activity (PRKCZ (human); compound 10.0 µM): 89%
- residual activity (PRKCZ (human); compound 100.0 µM): 103%
- residual activity (BRSK2 (human); compound 10.0 µM): 91%
- residual activity (BRSK2 (human); compound 100.0 µM): 99%
- residual activity (BRSK2 (human); compound 1000.0 µM): 108%
- residual activity (RPS6KA3 KD1 KD2 (human)): 117%
